This note sets out measurements from patent US20260364184A1, “COMPOUND BASED ON OXOISOINDOLINYL-SUBSTITUTED TETRAHYDROPYRIMIDINE-DIONE AND USE THEREOF” (GLUETACS THERAPEUTICS (SHANGHAI) CO., LTD., priority 2023, published 2026).

Holding throughout (type): cell-based
Assay [1] has as its system Human diffuse large B-cell lymphoma cell line (TMD8). The assay is described as follows: Inhibition of TMD8 cell proliferation (CellTiter luminescent viability). As to conditions: Homo sapiens, TMD8, 96 h; for inhibition at 0.01 µM: TMD8, 10 nM, read-out: Inhibition Rate at 10 nM (%); for inhibition at 0.5 µM: TMD8, 500 nM, read-out: Inhibition Rate at 500 nM (%). The protocol: (§1) The tumor cells used herein were cultured in a cell culture medium listed in table 3 at 37 °C in an incubator with 5% CO2. Prior to experimentation, all cell lines used were correctly identified by STR profiling, and tested negative for mycoplasma contamination using a mycoplasma detection kit through routine screenings.
(§2) The IC50 values of the compounds of the present disclosure (including the compounds in Table 1, Table 2, and Examples 1-468) were determined using the CellTiter-Meiluncell Luminescent Cell Viability Assay Kit from Dalian Meilun Biotech Co., Ltd. The detailed procedure is as follows: Tumor cells were seeded in 96-well cell culture plates at the densities specified in Table 4. On the following day, the test compounds of the present disclosure were subjected to serial dilution. The dilution can be performed according to one of the following two methods: • (1) The first dilution method: The test compounds of the present disclosure (including the compounds in Table 1, Table 2, and Examples 1-468) were subjected to 5-fold serial dilutions starting from a highest concentration of 2000 μM, resulting in a total of 9 concentrations from high to low (2000, 400, 80, 16, 3.2, 0.64, 0.128, 0.0256, 0.00512 μM). Subsequently, 0.5 μL of the test compound dilution was transferred into the 96-well plate containing the cells, with each well containing 100 μL of cell culture medium. […] Into the 96-well plate, the diluted test compounds and corresponding detection reagents were added, resulting in final test compound concentrations of 500 nM and 10 nM, respectively. The experimental procedure is described below using the diluted 2 μM test compound as an example.
(§3) 0.5 μL of the aforementioned diluted compound of the present disclosure (including the compounds in Table 1, Table 2, and Examples 1-468) was added to the seeded cells in 100 μL of medium, yielding a final test compound concentration of 10 nM. After the cells were treated with the compounds of the present disclosure for a specified period, the cell viability assay reagent was added to the culture medium according to the kit's instructions to determine cell viability. […] All controls were treated using the same procedure as the compounds of the present disclosure. The growth inhibition curves for the compounds of the present disclosure were plotted using Prism GraphPad software, and the IC50 values were calculated therefrom.

In assay [2] the test system is Human acute lymphocytic leukemia T lymphocytes cell line (CCRF-CEM). Nature of the assay: Inhibition of CCRF-CEM cell proliferation (CellTiter luminescent viability). Conditions: Homo sapiens, 96 h, Table IF2, AR inhibitor-based; for inhibition at 0.01 µM: 10 nM, read-out: Inhibition Rate at 10 nM (%); for inhibition at 0.5 µM: 500 nM, read-out: Inhibition Rate at 500 nM (%). As for the experimental part:
as §1, §2, §3

The test system of assay [3] is Human Multiple myeloma cell line (MM.1S). Nature of the assay: Inhibition of MM.1S cell proliferation (CellTiter luminescent viability). As to conditions: Homo sapiens, MM1.S, Table IJ1, Tau inhibitor-based, 96 hours; for inhibition at 0.01 µM: 10 nM, read-out: Inhibition Rate at 10 nM (%); for inhibition at 0.5 µM: 500 nM, read-out: Inhibition Rate at 500 nM (%). Put shortly: (§4)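 IC50 is fitted from luminescent viability (CellTiter-Meiluncell) curves. Nine-point, 5-fold dilution series (top stock 2000 μM) are added at 0.5 μL per 100 μL medium to cells plated the day before, with growth at 37 °C and 5% CO2.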

For assay [4], the system named is Human myeloid monocytic leukemia cell line (MV-4-11). The assay is described as follows: Inhibition of MV-4-11 cell proliferation (CellTiter luminescent viability). Conditions: Homo sapiens, MV4-11, Table IJ2, Tau inhibitor-based, 96 hours; for inhibition at 0.01 µM: MV-4-11, 10 nM, read-out: Inhibition Rate at 10 nM (%); for inhibition at 0.5 µM: MV-4-11, 500 nM, read-out: Inhibition Rate at 500 nM (%). Put shortly: as §4

Like-named read-outs stand apart in the source and are kept apart here.

Usually inhibition stands for the drop in the measured response relative to a control, in per cent.

Consider `N#Cc1ccc(O[C@H]2CC[C@H](NC(=O)c3ccc(N4CCC(CN5CCN(c6ccc7c(c6F)C(=O)N(N6CCC(=O)NC6=O)C7=O)CC5)CC4)nn3)CC2)cc1Cl` [GT-05232, N-((1r,4r)-4-(3-chloro-4-cyanophenoxy)cyclohexyl)-6-(4-((4-(2-(2,4-dioxotetrahydropyrimidin-1(2H)-yl)-4-fluoro-1,3-dioxoisoindolin-5-yl)piperazin-1-yl)methyl)piperidin-1-yl)pyridazine-3-carboxamide], for which, in assay [1] (Table IF1, AR inhibitor-based), the inhibition at 0.01 µM lay within 10 to 15% and the inhibition at 0.5 µM was in the range of 25 to 30%.

Turning to `CC1(C)[C@H](NC(=O)c2ccc(N3CCC(CN4CCN(c5cc6c(cc5F)C(=O)N(N5CCC(=O)NC5=O)C6=O)CC4)CC3)nc2)C(C)(C)[C@H]1Oc1ccc(C#N)c(Cl)c1` [GT-05304, N-((1r,3r)-3-(3-chloro-4-cyanophenoxy)-2,2,4,4-tetramethylcyclobutyl)-6-(4-((4-(2-(2,4-dioxotetrahydropyrimidin-1(2H)-yl)-6-fluoro-1,3-dioxoisoindolin-5-yl)piperazin-1-yl)methyl)piperidin-1-yl)nicotinamide], the inhibition at 0.01 µM in assay [2] lay in the range of 20 to 30%; in assay [1] (Table IF1, AR inhibitor-based) it was 30 to 35%. Also, the inhibition at 0.5 µM in assay [2] is 30 to 40%; in assay [1] (Table IF1, AR inhibitor-based), 40 to 60%.

`CC1(C)[C@H](NC(=O)c2ccc(N3CCC(CN4CC5CC(C4)N5c4ccc5c(c4)C(=O)N(N4CCC(=O)NC4=O)C5=O)CC3)nc2)C(C)(C)[C@H]1Oc1ccc(C#N)c(Cl)c1` [GT-05306, N-((1r,3r)-3-(3-chloro-4-cyanophenoxy)-2,2,4,4-tetramethylcyclobutyl)-6-(4-((6-(2-(2,4-dioxotetrahydropyrimidin-1(2H)-yl)-1,3-dioxoisoindolin-5-yl)-3,6-diazabicyclo[3.1.1]heptan-3-yl)methyl)piperidin-1-yl)nicotinamide]: in assay [2], the inhibition at 0.01 µM was 15 to 20% and the inhibition at 0.5 µM fell in the range of 20 to 30%. Further, in assay [1] (Table IF1, AR inhibitor-based), the inhibition at 0.01 µM lay within 10 to 15% and the inhibition at 0.5 µM was in the range of 20 to 25%.

With `CC1(C)[C@H](NC(=O)c2ccc(N3CCC(CN4CCN(C5CCN(c6ccc7c(c6)C(=O)N(N6CCC(=O)NC6=O)C7=O)CC5(F)F)CC4)CC3)nc2)C(C)(C)[C@H]1Oc1ccc(C#N)c(Cl)c1` (stereo partly shown) [GT-05347, N-((1r,3r)-3-(3-chloro-4-cyanophenoxy)-2,2,4,4-tetramethylcyclobutyl)-6-(4-((4-(1-(2-(2,4-dioxotetrahydropyrimidin-1(2H)-yl)-1,3-dioxoisoindolin-5-yl)-3,3-difluoropiperidin-4-yl)piperazin-1-yl)methyl)piperidin-1-yl)nicotinamide], in assay [1] (Table IF1, AR inhibitor-based), the inhibition at 0.01 µM lay within 5 to 10% and the inhibition at 0.5 µM lay in the range of 20 to 25%.

On to `O=C1CCN(N2C(=O)c3ccc(COc4ccc(Cl)cc4-c4nc5cc(C(F)(F)F)cc(Cl)c5[nH]4)cc3C2=O)C(=O)N1` [GT-06478, 5-((4-chloro-2-(7-chloro-5-(trifluoromethyl)-1H-benzo[d]imidazol-2-yl)phenoxy)methyl)-2-(2,4-dioxotetrahydropyrimidin-1(2H)-yl)isoindoline-1,3-dione], for which, in assay [1] (Table IF1, AR inhibitor-based), the inhibition at 0.01 µM was 15 to 20% and the inhibition at 0.5 µM lay within 30 to 35%.

With `Cn1c2ccncc2c2ccc(-c3cnc(N4CCN(CC5CCN(c6ccc7c(c6)C(=O)N(N6CCC(=O)NC6=O)C7=O)CC5)CC4)c(C(F)(F)F)c3)cc21` [GT-08553, 2-(2,4-dioxotetrahydropyrimidin-1(2H)-yl)-5-(4-((4-(5-(5-methyl-5H-pyrido[4,3-b]indol-7-yl)-3-(trifluoromethyl)pyridin-2-yl)piperazin-1-yl)methyl)piperidin-1-yl)isoindoline-1,3-dione], in assay [1] (Table IJ3, Tau inhibitor-based), the inhibition at 0.01 µM lay within 10 to 15% and the inhibition at 0.5 µM lay within 40 to 50%.

With `O=C1CCN(N2C(=O)c3cccc(N4CCC(CN5CCN(c6ccc(-c7ccc8c(c7)[nH]c7ccncc78)cn6)CC5)CC4)c3C2=O)C(=O)N1` [GT-08557, 4-(4-((4-(5-(5H-pyrido[4,3-b]indol-7-yl)pyridin-2-yl)piperazin-1-yl)methyl)piperidin-1-yl)-2-(2,4-dioxotetrahydropyrimidin-1(2H)-yl)isoindoline-1,3-dione], the inhibition at 0.01 µM in assay [3] lay within 30 to 40%; in assay [1] (Table IJ3, Tau inhibitor-based), 0 to 5%. In addition, the inhibition at 0.5 µM in assay [3] lay within 50 to 60%; in assay [1] (Table IJ3, Tau inhibitor-based) it was 60 to 70%.

As for `Cn1c2ccncc2c2ccc(-c3ccc(N4CCN(CC5CCN(c6cccc7c6C(=O)N(N6CCC(=O)NC6=O)C7=O)CC5)CC4)nc3)cc21` [GT-08558, 2-(2,4-dioxotetrahydropyrimidin-1(2H)-yl)-4-(4-((4-(5-(5-methyl-5H-pyrido[4,3-b]indol-7-yl)pyridin-2-yl)piperazin-1-yl)methyl)piperidin-1-yl)isoindoline-1,3-dione], in assay [4], the inhibition at 0.01 µM is -5 to 0% and the inhibition at 0.5 µM is 50 to 60%. Moreover, in assay [1] (Table IJ3, Tau inhibitor-based), the inhibition at 0.01 µM was in the range of 5 to 10% and the inhibition at 0.5 µM was 80 to 100%.

As for `Cc1cc(-c2ccc3c4cnccc4n(C)c3c2)cnc1N1CCN(CC2CCN(c3cccc4c3C(=O)N(N3CCC(=O)NC3=O)C4=O)CC2)CC1` [GT-08563, 2-(2,4-dioxotetrahydropyrimidin-1(2H)-yl)-4-(4-((4-(3-methyl-5-(5-methyl-5H-pyrido[4,3-b]indol-7-yl)pyridin-2-yl)piperazin-1-yl)methyl)piperidin-1-yl)isoindoline-1,3-dione], the inhibition at 0.01 µM fell in the range of 15 to 20% in assay [3]; 15 to 20% in assay [4]; 15 to 20% in assay [1] (Table IJ3, Tau inhibitor-based). Also, the inhibition at 0.5 µM lay within 60 to 70% in assay [3]; 80 to 100% in assay [4]; 80 to 100% in assay [1] (Table IJ3, Tau inhibitor-based).

As for `Cn1c2ccncc2c2ccc(-c3cnc(N4CCN(CC5CCN(c6cccc7c6C(=O)N(N6CCC(=O)NC6=O)C7=O)CC5)CC4)c(Cl)c3)cc21` [GT-08564, 4-(4-((4-(3-chloro-5-(5-methyl-5H-pyrido[4,3-b]indol-7-yl)pyridin-2-yl)piperazin-1-yl)methyl)piperidin-1-yl)-2-(2,4-dioxotetrahydropyrimidin-1(2H)-yl)isoindoline-1,3-dione], in assay [4], the inhibition at 0.01 µM lay within 0 to 5% and the inhibition at 0.5 µM is 70 to 80%. In assay [1] (Table IJ3, Tau inhibitor-based), the inhibition at 0.01 µM lay within 10 to 15% and the inhibition at 0.5 µM lay within 80 to 100%.
